Experimental data published in US9719093B2, “Composition for treating cancer associated with HPV infection” (priority 2012, dated 2017).

Test system: HeLa cell line
Test: Cell senescence-associated β-galactosidase (SA-β-gal) activity
Assay type: cell-based
Details: treated alone
Protocol: A HeLa or Caski cell line, which was seeded in a 6-well plate in 2×10^5 cells or 1.5×10^5 cells and then cultured for a day by the method as described above, was transduced with siRNA. Then, each transduced cell line was treated with cisplatin (CDDP) in a final concentration of 2.5 uM, and cultured.
By using the cell senescence assay kit (BioVision, USA), cells were washed with PBS and treated with SA-β-gal staining solution for 12 hours at 37. Cells stained in blue were observed by using a general optical microscope with the magnification of 100 to 200 times.
SA β-Gal activity of a HeLA or Caski cell line, which was treated by the method as described above, was measured.

N.N.[Cl][Pt][Cl] [cisplatin]
SA β-Gal activity (staining): cells were stained in blue
